# Data reported in patent US20040062848A1, “Lapactic agent” (priority 2002, published 2004).
# Experiment: Acute toxicity (LD50)
# Details: in vivo
substance,measurement,value
ε-polylysine hydrochloride,acute toxicity in LD50,≥ 5000 mg/kg
